Literature values in publication PMC9199361 (Inorganic chemistry, 2020).

Key:
[1] = for log KML: copper(II) complex of the chelator
[2] = 5 M HCl, 90 °C
[3] = copper complex of the chelator

| log KML [1] | acid stability (conditions) [2] | E1/2 (V) [3] [V] | reversibility of the redox event at E1/2 [3] | thermodynamic stability constant (log KML) ([1]; copper(II) complex) | SMILES |
| --- | --- | --- | --- | --- | --- |
| 21.9 | <4.5 min (5 M HCl, 90 °C) | −0.980 | irrev |  | O=C(O)CN1CCCN(CC(=O)O)CCN(CC(=O)O)CCCN(CC(=O)O)CC1 [TETA] |
| 27.1 | 254 h (5 M HCl, 90 °C) | −0.88 | quasi-rev |  | O=C(O)CN1CCCN2CCN(CCCN(CC(=O)O)CC2)CC1 [CB-TE2A] |
|  | <3 min (5 M HCl, 90 °C) |  | irrev | 21.9 | O=C(O)CN1CCN(CC(=O)O)CCN(CC(=O)O)CC1 [NOTA] |
